According to paper PMC8899516, “Structure-Activity Relationship Studies of 4-((4-(2-fluorophenyl)piperazin-1-yl)methyl)-6-imino-N-(naphthalen-2-yl)-1,3,5-triazin-2-amine (FPMINT) Analogues as Inhibitors of Human Equilibrative Nucleoside Transporters” (Frontiers in Pharmacology, 2022):

Tests used:
[1] = molecular target: T1, ENT2 (Homo sapiens, UniProt Q14542); assay: [3H]uridine uptake in PK15NTD/ENT2 cells; type: cell-based; settings: for IC50: [3H]uridine 1 μM, 1 min, PK15NTD/ENT2 cells, read-out: IC50 against ENT2; for effect on ENT2: [3H]uridine uptake, 10 nM–100 μM analogue; for selectivity to ENT2 over ENT1: more selective to ENT2 than to ENT1, from IC50 values
T1 construct: expressed in transfected cells
T1 sequence (Q14542 1-456): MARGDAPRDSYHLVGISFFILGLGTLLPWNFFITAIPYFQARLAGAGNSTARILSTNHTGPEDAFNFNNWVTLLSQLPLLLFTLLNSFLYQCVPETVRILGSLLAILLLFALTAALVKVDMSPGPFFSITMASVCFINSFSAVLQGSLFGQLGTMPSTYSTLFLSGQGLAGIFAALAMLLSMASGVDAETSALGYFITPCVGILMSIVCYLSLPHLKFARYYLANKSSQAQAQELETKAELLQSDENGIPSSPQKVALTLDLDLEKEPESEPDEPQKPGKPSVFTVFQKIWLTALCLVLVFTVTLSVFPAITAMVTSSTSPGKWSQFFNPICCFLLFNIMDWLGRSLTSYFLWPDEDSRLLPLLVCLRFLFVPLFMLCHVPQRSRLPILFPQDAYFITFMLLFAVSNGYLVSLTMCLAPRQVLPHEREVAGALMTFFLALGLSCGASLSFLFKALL
Protocol: (§1) Nucleoside transporter-deficient porcine kidney fibroblast cells (PK15NTD) stably transfected with cloned human ENT1 or ENT2 ([Ward et al., 2000]) were used as the in vitro models. The cells were cultured in Dulbecco’s Modified Eagle’s Medium (DMEM) supplemented with 10% (v/v) foetal bovine serum, 0.5 mg/ml geneticin, 100 units/ml penicillin, 100 μg/ml streptomycin and 0.25 μg/ml of amphotericin B at 37°C in 5% CO2/95% air.
The cells were incubated with different concentrations of FPMINT analogues (from 10 nM to 100 μM) containing [^3H]uridine (2 μCi/ml, 1 μM) for 1 min. Passive uridine uptake was determined by incubating the cells in HEPES-buffered Ringer’s solution containing [^3H]uridine in the presence of 0.5 mM NBMPR. The cells were rapidly washed five times with ice-cold phosphate-buffered saline (PBS). After air-drying, the cells were solubilised by overnight incubation in 500 μl of 5% Triton-X100. Next, 300 μl of the cell lysates were mixed with 2 ml of scintillation liquid. The radioactivity of each sample was quantified by a scintillation counter. The protein content in each well was determined spectrophotometrically using a commercial bicinchoninic acid assay (Pierce Biochemicals, Rockford, IL). Uptake values were expressed as picomoles of [^3H]uridine per milligram of cellular protein per minute.
(§2) All data were analysed by GraphPad Prism software (San Diego, CA, United States). Data are expressed as mean ± standard error (SE) of three experiments performed in triplicate. The IC50 values were determined from the dose-response curves fitted with a logistic function. For the kinetic study of [^3H]uridine uptake, apparent K m and V max values were determined from the Michaelis-Menten equation, and K i was determined from the X-intercept of linear regression. Analysis of variance and Student’s t-test were performed for multiple and paired variables, respectively. p values of <0.05 were considered to be statistically significant.

[2] = molecular target: T2, ENT1 (Homo sapiens, UniProt Q99808); assay: [3H]uridine uptake in PK15NTD/ENT1 cells; type: cell-based; settings: for IC50: [3H]uridine 1 μM, 1 min, PK15NTD/ENT1 cells, read-out: IC50 against ENT1
T2 construct: expressed in transfected cells
T2 sequence (Q99808 1-456): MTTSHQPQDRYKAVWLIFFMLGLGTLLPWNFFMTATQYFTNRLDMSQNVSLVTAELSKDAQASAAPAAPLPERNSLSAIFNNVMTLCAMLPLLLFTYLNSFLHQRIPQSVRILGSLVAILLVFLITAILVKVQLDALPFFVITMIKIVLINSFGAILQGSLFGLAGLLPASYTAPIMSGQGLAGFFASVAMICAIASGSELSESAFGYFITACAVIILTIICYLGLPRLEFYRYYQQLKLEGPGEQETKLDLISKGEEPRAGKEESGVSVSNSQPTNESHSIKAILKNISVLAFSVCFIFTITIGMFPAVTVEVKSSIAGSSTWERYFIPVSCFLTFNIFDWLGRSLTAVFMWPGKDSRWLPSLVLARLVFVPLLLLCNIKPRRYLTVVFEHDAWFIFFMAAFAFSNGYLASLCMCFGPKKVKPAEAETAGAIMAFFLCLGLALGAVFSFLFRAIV
Protocol: as §1
Confluent monolayers of PK15NTD/ENT1 and PK15NTD/ENT2 cells in 24-well plates were washed thrice with HEPES-buffered Ringer’s solution containing (mM): 135 NaCl, 10 glucose, 5 KCl, 5 HEPES, 3.33 NaH2PO4, 1.0 CaCl2, 1.0 MgCl2, 0.83 Na2HPO4; pH 7.4. The cells were incubated with different concentrations of FPMINT analogues (from 10 nM to 100 μM) containing [^3H]uridine (2 μCi/ml, 1 μM) for 1 min. Passive uridine uptake was determined by incubating the cells in HEPES-buffered Ringer’s solution containing [^3H]uridine in the presence of 0.5 mM NBMPR. The cells were rapidly washed five times with ice-cold phosphate-buffered saline (PBS). After air-drying, the cells were solubilised by overnight incubation in 500 μl of 5% Triton-X100. Next, 300 μl of the cell lysates were mixed with 2 ml of scintillation liquid. The radioactivity of each sample was quantified by a scintillation counter. The protein content in each well was determined spectrophotometrically using a commercial bicinchoninic acid assay (Pierce Biochemicals, Rockford, IL). Uptake values were expressed as picomoles of [^3H]uridine per milligram of cellular protein per minute.
as §2

[3] = system: ENT1 and ENT2; settings: ref Ward et al., 2000, cited from earlier work; for fold more potent in inhibiting ENT1 than in inhibiting ENT2: Playa et al., 2014
[4] = system: ENT3; set-up: method as in Baldwin et al., 2005; Barnes et al., 2006; settings: ref Baldwin et al., 2005; Barnes et al., 2006; cited from earlier work
[5] = system: ENT4; set-up: method as in Baldwin et al., 2005; Barnes et al., 2006; settings: ref Baldwin et al., 2005; Barnes et al., 2006; cited from earlier work
[6] = system: ENT1 and ENT2; set-up: method as in Ward et al., 2000; settings: substrate affinity; ref Ward et al., 2000; cited from earlier work

## COc1ccc(Nc2nc(N)nc(CN3CCN(c4ccccc4F)CC3)n2)cc1 [Compound 1d]
[1]
  IC50: 77.1 µM
[2]
  IC50: 0.59 µM

## OCCN(CCO)c1nc(N2CCCCC2)c2nc(N(CCO)CCO)nc(N3CCCCC3)c2n1 [dipyridamole]
[3]
  fold more potent in inhibiting ENT1 than in inhibiting ENT2: 71 fold
  IC50 of ENT2 fold higher than that of ENT1: 71 fold
[4]
  sensitivity of ENT3 to inhibitor: inert
[5]
  sensitivity of ENT4 to inhibitor: inert

## O=[N+]([O-])c1ccc(CSc2ncnc3c2ncn3[C@@H]2O[C@H](CO)[C@@H](O)[C@H]2O)cc1 [NBMPR, S-(4-nitrobenzyl)-6-thioinosine]
[3]
  fold more potent in inhibiting ENT1 than in inhibiting ENT2: 7,000 fold
  IC50 of ENT2 fold higher than that of ENT1: 7,000 fold
[4]
  sensitivity of ENT3 to inhibitor: inert
[5]
  sensitivity of ENT4 to inhibitor: inert

## Nc1nc(CN2CCN(c3ccccc3F)CC2)nc(Nc2cccc(Cl)c2)n1 [Compound 1b]
[1]
  effect on ENT2: no effect
[2]
  IC50: 1.82 µM

## Nc1ccn([C@@H]2O[C@H](CO)[C@@H](O)[C@H]2O)c(=O)n1 [cytidine]
[6]
  affinity of ENT1 fold higher than that of ENT2: 7.7 fold

## Nc1nc(CN2CCN(c3ccc(F)cc3)CC2)nc(Nc2cccc(Cl)c2)n1 [Compound 3b]
[1]
  effect on ENT2: did not inhibit
[2]
  IC50: 1.65 µM

## Nc1nc(CN2CCN(c3ccccc3)CC2)nc(Nc2cccc3ccccc23)n1 [Compound 2a]
[1]
  effect on ENT2: did not inhibit
[2]
  IC50: 105 µM

## Nc1ncnc2c1ncn2[C@@H]1O[C@H](CO)[C@@H](O)[C@H]1O [adenosine]
[6]
  affinity of ENT1 fold higher than that of ENT2: 2.8 fold

## Nc1nc2c(ncn2[C@@H]2O[C@H](CO)[C@@H](O)[C@H]2O)c(=O)[nH]1 [guanosine]
[6]
  affinity of ENT1 fold higher than that of ENT2: 19.3 fold

## CCc1ccc(Nc2nc(N)nc(CN3CCN(c4ccccc4F)CC3)n2)cc1 [Compound 1c]
[1]
  IC50: 36.8 µM
  selectivity to ENT2 over ENT1: 4.647 fold
[2]
  IC50: 171 µM

## Cc1cn([C@H]2C[C@H](O)[C@@H](CO)O2)c(=O)[nH]c1=O [thymidine]
[6]
  affinity of ENT1 fold higher than that of ENT2: 2.6 fold

## Nc1nc(CN2CCN(c3ccccc3F)CC2)nc(Nc2ccccc2)n1 [Compound 1a]
[1]
  effect on ENT2: negligible effects
[2]; [3H]uridine uptake, 10 nM–100 μM analogue
  effect on ENT1: negligible effects

## COc1cc(C(=O)OCCCN2CCCN(CCCOC(=O)c3cc(OC)c(OC)c(OC)c3)CC2)cc(OC)c1OC [dilazep]
[3]
  fold more potent in inhibiting ENT1 than in inhibiting ENT2: 502 fold

## Nc1nc(CN2CCN(c3cccc(Cl)c3)CC2)nc(Nc2cccc3ccccc23)n1 [Compound 2b]
[1]
  IC50: 2.95 µM
  selectivity to ENT2 over ENT1: 4.29 fold
[2]
  IC50: 12.7 µM
